PubChem BioAssay (NCI)
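In this assay, cells in 96-well plates receive the compound at five concentrations for 48 hours. Endpoints are linearly interpolated between the surrounding concentrations. GI50: concentration for 50% inhibition of growth. TGI: concentration producing complete growth inhibition.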

Experiments:
Experiment in all cases: NCI anticancer screen, dose series, 48 h
[1] = test system: SK-MEL-28 melanoma
[2] = test system: SF-539 CNS
[3] = test system: SNB-75 CNS
[4] = test system: HT29 colon
[5] = test system: M14 melanoma
[6] = test system: SNB-19 CNS
[7] = test system: COLO 205 colon
[8] = test system: CAKI-1 renal
[9] = test system: A498 renal
[10] = test system: RPMI-8226 leukemia
[11] = test system: NCI/ADR-RES ovarian
[12] = test system: SK-MEL-2 melanoma
[13] = test system: ACHN renal
[14] = test system: MCF7 breast
[15] = test system: SF-295 CNS
[16] = test system: HS 578T breast
[17] = test system: A549 NSCLC
[18] = test system: HCT-15 colon
[19] = test system: LOX IMVI melanoma
[20] = test system: HCC-2998 colon
[21] = test system: HOP-92 NSCLC
[22] = test system: U251 CNS
[23] = test system: EKVX NSCLC
[24] = test system: OVCAR-4 ovarian
[25] = test system: PC-3 prostate
[26] = test system: HOP-62 NSCLC
[27] = test system: CCRF-CEM leukemia
[28] = test system: KM12 colon
[29] = test system: T-47D breast
[30] = test system: SN12C renal
[31] = test system: NCI-H226 lung
[32] = test system: NCI-H23 lung
[33] = test system: SK-OV-3 ovarian
[34] = test system: SW-620 colon
[35] = test system: K-562 leukemia
[36] = test system: UACC-62 melanoma
[37] = test system: RXF 393 renal
[38] = test system: OVCAR-8 ovarian
[39] = test system: UO-31 renal
[40] = test system: SR leukemia
[41] = test system: TK-10 renal
[42] = test system: 786-0 renal
[43] = test system: BT-549 breast
[44] = test system: MDA-MB-231 breast
[45] = test system: OVCAR-3 ovarian
[46] = test system: NCI-H522 lung
[47] = test system: OVCAR-5 ovarian
[48] = test system: SK-MEL-5 melanoma
[49] = test system: MOLT-4 leukemia
[50] = test system: MDA-MB-435
[51] = test system: SF-268 CNS
[52] = test system: IGROV1 ovarian
[53] = test system: DU-145 prostate
[54] = test system: UACC-257 melanoma
[55] = test system: HCT-116 colon
[56] = test system: MALME-3M melanoma
[57] = test system: HL-60(TB) leukemia
[58] = test system: NCI-H460 lung

Cn1c(=O)c2c(n(C)c1=O)n1c(=O)c3ccccc3nc1n2C
TGI [1]: > 100 µM
TGI [2]: > 100 µM
TGI [3]: > 100 µM
TGI [4]: > 100 µM
TGI [5]: > 100 µM
TGI [6]: > 100 µM
TGI [7]: > 100 µM
TGI [8]: > 100 µM
TGI [9]: > 100 µM
TGI [10]: > 100 µM
TGI [11]: > 100 µM
TGI [12]: > 100 µM
TGI [13]: > 100 µM
TGI [14]: > 100 µM
TGI [15]: > 100 µM
TGI [16]: > 100 µM
TGI [17]: > 100 µM
TGI [18]: > 100 µM
TGI [19]: > 100 µM
TGI [20]: > 100 µM
TGI [21]: > 100 µM
TGI [22]: > 100 µM
TGI [23]: > 100 µM
TGI [24]: > 100 µM
TGI [25]: > 100 µM
TGI [26]: > 100 µM
TGI [27]: > 100 µM
TGI [28]: > 100 µM
TGI [29]: > 100 µM
TGI [30]: > 100 µM
TGI [31]: 73.2 µM
TGI [32]: > 100 µM
TGI [33]: > 100 µM
TGI [34]: > 100 µM
TGI [35]: > 100 µM
TGI [36]: > 100 µM
TGI [37]: > 100 µM
TGI [38]: > 100 µM
TGI [39]: > 100 µM
TGI [40]: > 100 µM
TGI [41]: > 100 µM
TGI [42]: > 100 µM
TGI [43]: > 100 µM
TGI [44]: > 100 µM
TGI [45]: > 100 µM
TGI [46]: > 100 µM
TGI [47]: > 100 µM
TGI [48]: > 100 µM
TGI [49]: > 100 µM
TGI [50]: > 100 µM
TGI [51]: > 100 µM
TGI [52]: > 100 µM
TGI [53]: > 100 µM
TGI [54]: > 100 µM
TGI [55]: > 100 µM

COc1ccc2c(CCCCC(c3ccccc3)c3ccccc3)c3[n+](cc2c1OC)CCc1cc2c(cc1-3)OCO2
GI50 [11]: 1.83 µM
TGI [11]: 7.48 µM
GI50 [16]: 0.536 µM
TGI [16]: 3.09 µM
GI50 [31]: 0.28 µM
TGI [31]: 1.85 µM
GI50 [48]: 0.0451 µM
TGI [48]: 0.177 µM
GI50 [50]: 0.106 µM
TGI [50]: 1.02 µM

[O-]c1c2cc(-[n+]3c(-c4ccccc4)cc(-c4ccccc4)cc3-c3ccccc3)cc1CO[C@@H](c1ccccc1)[C@H](c1ccccc1)OCCOCCO[C@@H](c1ccccc1)[C@H](c1ccccc1)OC2
TGI [4]: 0.646 µM
TGI [16]: 3.12 µM
TGI [27]: 0.238 µM
TGI [36]: 1.39 µM
TGI [39]: > 100 µM
TGI [53]: 1.14 µM

Brc1ccc2c(c1)-c1ccccc1C1=NCCN12
GI50 [1]: 1.8 µM
TGI [1]: 3.63 µM
GI50 [2]: 1.63 µM
TGI [2]: 4.38 µM
GI50 [3]: 1.53 µM
TGI [3]: 4.15 µM
GI50 [56]: 1.35 µM
TGI [56]: 2.97 µM
GI50 [4]: 0.478 µM
TGI [4]: 3.33 µM
GI50 [5]: 1.48 µM
TGI [5]: 3.16 µM
GI50 [6]: 2.17 µM
TGI [6]: 11.6 µM
GI50 [7]: 0.652 µM
TGI [7]: 2.33 µM
GI50 [8]: 1.52 µM
TGI [8]: 7.92 µM
GI50 [9]: 0.866 µM
TGI [9]: 2.36 µM
GI50 [10]: 1.71 µM
TGI [10]: 4.95 µM
GI50 [11]: 0.897 µM
TGI [11]: 26.7 µM
GI50 [12]: 1.87 µM
TGI [12]: 4.18 µM
GI50 [13]: 0.519 µM
TGI [13]: 12.4 µM
GI50 [14]: 0.552 µM
TGI [14]: 10.9 µM
GI50 [15]: 0.984 µM
TGI [15]: 4 µM
GI50 [16]: 2.8 µM
TGI [16]: 12 µM
GI50 [17]: 0.548 µM
TGI [17]: 3.58 µM
GI50 [18]: 0.68 µM
TGI [18]: 10.8 µM
GI50 [19]: 0.526 µM
TGI [19]: 10.6 µM
GI50 [20]: 1.3 µM
TGI [20]: 8.49 µM
GI50 [21]: 1.33 µM
TGI [21]: 5.74 µM
GI50 [22]: 1.24 µM
TGI [22]: 11.1 µM
GI50 [24]: 1.43 µM
TGI [24]: 8.53 µM
GI50 [57]: 2.45 µM
TGI [57]: 5.65 µM
GI50 [25]: 0.763 µM
TGI [25]: 11 µM
GI50 [26]: 0.962 µM
TGI [26]: 8.02 µM
GI50 [27]: 1.74 µM
TGI [27]: 4.93 µM
GI50 [28]: 1.02 µM
TGI [28]: 11.3 µM
GI50 [29]: 2.85 µM
TGI [29]: 18.4 µM
GI50 [30]: 1.13 µM
TGI [30]: 13 µM
GI50 [32]: 1.8 µM
TGI [32]: 11.3 µM
GI50 [33]: 2.88 µM
TGI [33]: 16.6 µM
GI50 [34]: 0.44 µM
TGI [34]: 10.4 µM
GI50 [35]: 0.857 µM
TGI [35]: 5.1 µM
GI50 [36]: 1.69 µM
TGI [36]: 3.24 µM
GI50 [37]: 1.29 µM
TGI [37]: 3.23 µM
GI50 [38]: 0.573 µM
TGI [38]: 12.1 µM
GI50 [39]: 0.585 µM
TGI [39]: 3.81 µM
GI50 [40]: 0.753 µM
TGI [40]: 3.83 µM
GI50 [41]: 1.5 µM
TGI [41]: 7.18 µM
GI50 [42]: 1.61 µM
TGI [42]: 11.7 µM
GI50 [43]: 1.88 µM
TGI [43]: 6.07 µM
GI50 [44]: 1.73 µM
TGI [44]: 4.29 µM
GI50 [58]: 0.399 µM
TGI [58]: 2.71 µM
GI50 [45]: 2.08 µM
TGI [45]: 8.04 µM
GI50 [46]: 0.762 µM
TGI [46]: 2.75 µM
GI50 [47]: 1.64 µM
TGI [47]: 10.4 µM
GI50 [48]: 1.52 µM
TGI [48]: 3.24 µM
GI50 [49]: 0.419 µM
TGI [49]: 3.73 µM
GI50 [50]: 1.06 µM
TGI [50]: 2.45 µM
GI50 [51]: 1.77 µM
TGI [51]: 9.44 µM
GI50 [52]: 1.61 µM
TGI [52]: 11.2 µM
GI50 [53]: 1.09 µM
TGI [53]: 10.9 µM
GI50 [54]: 1.59 µM
TGI [54]: 4.51 µM
GI50 [55]: 0.403 µM
TGI [55]: 10.2 µM
